The target of experiment [1] is T1, HDAC6 human recombinant (Homo sapiens, UniProt Q9UBN7).
T1 construct: purchased Calbiochem 382180
T1 sequence (Q9UBN7 1-1215): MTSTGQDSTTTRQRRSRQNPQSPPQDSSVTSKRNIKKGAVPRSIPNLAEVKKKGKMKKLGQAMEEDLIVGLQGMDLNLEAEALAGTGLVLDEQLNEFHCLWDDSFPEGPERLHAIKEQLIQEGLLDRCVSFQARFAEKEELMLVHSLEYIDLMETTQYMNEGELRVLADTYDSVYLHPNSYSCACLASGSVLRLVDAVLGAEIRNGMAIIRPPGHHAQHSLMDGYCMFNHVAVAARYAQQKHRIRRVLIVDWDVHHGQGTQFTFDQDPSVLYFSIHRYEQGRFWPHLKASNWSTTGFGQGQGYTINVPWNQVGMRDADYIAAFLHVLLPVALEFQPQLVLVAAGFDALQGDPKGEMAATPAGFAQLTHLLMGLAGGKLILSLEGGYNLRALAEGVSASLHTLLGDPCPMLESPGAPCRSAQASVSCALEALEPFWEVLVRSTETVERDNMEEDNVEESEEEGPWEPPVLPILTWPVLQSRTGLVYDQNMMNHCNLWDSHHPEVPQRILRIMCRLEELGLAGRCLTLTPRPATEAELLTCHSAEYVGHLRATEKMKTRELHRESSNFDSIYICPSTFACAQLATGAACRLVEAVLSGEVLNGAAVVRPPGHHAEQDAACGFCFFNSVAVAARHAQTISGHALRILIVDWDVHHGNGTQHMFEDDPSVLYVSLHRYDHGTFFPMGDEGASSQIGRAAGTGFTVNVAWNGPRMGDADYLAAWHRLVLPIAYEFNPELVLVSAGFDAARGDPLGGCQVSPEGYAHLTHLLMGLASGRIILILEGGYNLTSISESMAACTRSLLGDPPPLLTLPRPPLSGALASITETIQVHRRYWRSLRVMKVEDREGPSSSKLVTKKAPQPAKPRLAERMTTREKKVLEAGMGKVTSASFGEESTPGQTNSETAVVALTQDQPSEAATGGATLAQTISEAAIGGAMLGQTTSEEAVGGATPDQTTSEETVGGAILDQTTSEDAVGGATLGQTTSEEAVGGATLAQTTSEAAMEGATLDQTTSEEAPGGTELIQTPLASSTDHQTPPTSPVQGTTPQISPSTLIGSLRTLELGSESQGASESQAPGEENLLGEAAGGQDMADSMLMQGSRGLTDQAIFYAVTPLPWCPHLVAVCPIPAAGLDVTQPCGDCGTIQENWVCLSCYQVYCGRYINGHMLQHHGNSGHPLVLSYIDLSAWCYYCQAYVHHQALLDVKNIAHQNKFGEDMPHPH
Briefly: Inhibition of HDAC6 activity (fluorimetric assay). The following applies: test concentrations 0.1, 1, 10, 100 and 1000 nM; 37° C., 60 minutes. In kind it is biochemical. The protocol: (§1) Assays were performed using a HDAC1 fluorimetric drug discovery assay kit (Enzolifesciences: BML-AK511) and a HDAC6 human recombinant (Calbiochem: 382180). The assay mixture of the kit was treated with a test compound at concentrations of 100, 1000 and 10000 nM for HDAC1 assay and concentrations of 0.1, 1, 10, 100 and 1000 nM for HDAC6 assay. The treated assay mixture was allowed to react at 37° C. for 60 minutes, and then was treated with a developer and allowed to stand at 37° C. for 30 minutes, followed by quantification of the fluorescence.

Experiment [2] addresses T2, HDAC1 (Homo sapiens, UniProt Q13547).
T2 construct: purchased Enzolifesciences BML-AK511
Briefly: Inhibition of HDAC1 activity (HDAC1 fluorimetric drug discovery assay kit). In kind it is biochemical. Particulars: test concentrations 100, 1000 and 10000 nM; 37° C., 60 minutes. The method, then: as §1

T2 sequence (Q13547 whole entry): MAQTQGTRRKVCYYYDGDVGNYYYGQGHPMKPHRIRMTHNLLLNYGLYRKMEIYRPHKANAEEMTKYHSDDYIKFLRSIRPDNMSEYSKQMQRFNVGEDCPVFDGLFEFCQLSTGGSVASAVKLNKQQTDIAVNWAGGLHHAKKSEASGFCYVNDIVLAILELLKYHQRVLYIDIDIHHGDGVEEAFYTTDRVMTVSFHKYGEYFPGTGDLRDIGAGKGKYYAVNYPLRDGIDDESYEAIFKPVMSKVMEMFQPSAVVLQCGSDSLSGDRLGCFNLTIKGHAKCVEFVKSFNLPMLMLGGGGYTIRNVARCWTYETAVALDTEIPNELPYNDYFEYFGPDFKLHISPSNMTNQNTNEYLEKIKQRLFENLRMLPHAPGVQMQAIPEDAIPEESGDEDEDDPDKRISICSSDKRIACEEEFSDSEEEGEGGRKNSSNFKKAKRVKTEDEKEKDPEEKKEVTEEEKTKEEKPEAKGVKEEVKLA

On to `O=C(NO)c1ccc(Cn2ccc3cc(-c4cccnc4)cnc32)cc1` [Compound 103], for which the concentration for half-maximal inhibition (IC50) in experiment [1] worked out at 0.26 nM; in experiment [2] it was 382 nM.

For the compound `O=C(NO)c1ccc(Cn2ccc3cc(-c4ccc(F)cc4)cnc32)cc1` [Compound 104, 4-((5-(4-fluorophenyl)-1H-pyrrolo[2,3-b]pyridin-1-yl)methyl)-N-hydroxybenzamide], the results for the IC50 in experiment [1] and in experiment [2] were 0.7 nM and 1670 nM, respectively.

For the compound `O=C(NO)c1ccc(Cn2ccc3cc(-c4cncnc4)cnc32)cc1` [Compound 124, N-hydroxy-4-((5-(pyrimidin-5-yl)-1H-pyrrolo[2,3-b]pyridin-1-yl)methyl)benzamide], the 50% inhibitory concentration (IC50) in experiment [1] was 120 nM; in experiment [2] it was 540 nM.

Consider `O=C(NO)c1ccc(Cn2ccc3cc(-c4ccc(F)cc4F)cnc32)cc1` [Compound 125, 4-((5-(2,4-difluorophenyl)-1H-pyrrolo[2,3-b]pyridin-1-yl)methyl)-N-hydroxybenzamide], for which the figures for the IC50 in experiment [1] and in experiment [2] were 52 nM and 1610 nM, respectively.

`CC(C)(C)OC(=O)N1CCN(c2ccnc3c2ccn3Cc2ccc(C(=O)NO)cc2)CC1` [Compound 212]: the IC50 in experiment [1] was 14 nM; in experiment [2], 890 nM.

In the case of `CCN1CCN(c2ccnc3c2ccn3Cc2ccc(C(=O)NO)cc2)CC1` [Compound 223, 4-((4-(4-ethylpiperazin-1-yl)-1H-pyrrolo[2,3-b]pyridin-1-yl)methyl)-N-hydroxybenzamide], the IC50 amounted to 7 nM in experiment [1] and 380 nM in experiment [2].

On to `CN1CCN(c2ccnc3c2ccn3Cc2ccc(C(=O)NO)cc2)CC1` [Compound 224, N-hydroxy-4-((4-(4-methylpiperazin-1-yl)-1H-pyrrolo[2,3-b]pyridin-1-yl)methyl)benzamide], for which the IC50 in experiment [1] stood at 2 nM; in experiment [2], 180 nM.

In the case of `CC(C)N1CCN(c2ccnc3c2ccn3Cc2ccc(C(=O)NO)cc2)CC1` [Compound 225, N-hydroxy-4-((4-(4-isopropylpiperazin-1-yl)-1H-pyrrolo[2,3-b]pyridin-1-yl)methyl)benzamide], the IC50 was 3 nM in experiment [1] and 410 nM in experiment [2].

`CC(C)(F)CN1CC=C(c2cnc3c(ccn3Cc3ccc(C(=O)NO)cc3)c2)CC1` [Compound 617, 4-((5-(1-(2-fluoro-2-methylpropyl)-1,2,3,6-tetrahydropyridin-4-yl)-1H-pyrrolo[2,3-b]pyridin-1-yl)methyl)-N-hydroxybenzamide]: the IC50 in experiment [1] stood at 9 nM; in experiment [2], 4220 nM.

Take `CC(C)(F)CN1CCC(c2cnc3c(ccn3Cc3ccc(C(=O)NO)cc3)c2)CC1` [Compound 618, 4-((5-(1-(2-fluoro-2-methylpropyl)piperidin-4-yl)-1H-pyrrolo[2,3-b]pyridin-1-yl)methyl)-N-hydroxybenzamide]: the IC50 came out at 16 nM in experiment [1] and 1300 nM in experiment [2].

As for `O=C(NO)c1ccc(Cn2ccc3cc(C4=CCOCC4)cnc32)cc1` [Compound 629, 4-((5-(3,6-dihydro-2H-pyran-4-yl)-1H-pyrrolo[2,3-b]pyridin-1-yl)methyl)-N-hydroxybenzamide], the half-maximal inhibitory concentration (IC50) in experiment [1] was found to be 4 nM; in experiment [2], 1050 nM.

With `CC(C)(F)CN1CC=C(c2ccnc3c2ccn3Cc2ccc(C(=O)NO)cc2)CC1` [Compound 630, 4-((4-(1-(2-fluoro-2-methylpropyl)-1,2,3,6-tetrahydropyridin-4-yl)-1H-pyrrolo[2,3-b]pyridin-1-yl)methyl)-N-hydroxybenzamide], the results for the IC50 in experiment [1] and in experiment [2] were 8 nM and 1090 nM, respectively.

With `O=C(NO)c1ccc(Cn2ccc3cc(C4CCOCC4)cnc32)cc1` [Compound 635, N-hydroxy-4-((5-(tetrahydro-2H-pyran-4-yl)-1H-pyrrolo[2,3-b]pyridin-1-yl)methyl)benzamide], the 50% inhibitory concentration (IC50) in experiment [1] was determined as 11 nM; in experiment [2], 1170 nM.

For the compound `O=C(NO)c1ccc(Cn2ccc3cc(-c4ccccc4)cnc32)cc1` [Compound 645, N-hydroxy-4-((5-phenyl-1H-pyrrolo[2,3-b]pyridin-1-yl)methyl)benzamide], the half-maximal inhibitory concentration (IC50) was determined as 17 nM in experiment [1] and 3050 nM in experiment [2].

`CN1CC=C(c2cnc3c(ccn3Cc3ccc(C(=O)NO)cc3)c2)CC1` [Compound 647, N-hydroxy-4-((5-(1-methyl-1,2,3,6-tetrahydropyridin-4-yl)-1H-pyrrolo[2,3-b]pyridin-1-yl)methyl)benzamide]: the values for the concentration for half-maximal inhibition (IC50) in experiment [1] and in experiment [2] were 15 nM and 1170 nM, respectively.

As for `O=C(NO)c1ccc(Cn2ccc3cc(C4=CCCCC4)cnc32)cc1` [Compound 648, 4-((5-(cyclohex-1-en-1-yl)-1H-pyrrolo[2,3-b]pyridin-1-yl)methyl)-N-hydroxybenzamide], the IC50 was determined as 18 nM in experiment [1] and 3550 nM in experiment [2].

Regarding `CC1(C)CC=C(c2cnc3c(ccn3Cc3ccc(C(=O)NO)cc3)c2)CC1` [Compound 649], the half-maximal inhibitory concentration (IC50) in experiment [1] is 93 nM; in experiment [2], 7050 nM.

For the compound `O=C(NO)c1ccc(Cn2ccc3cc(C4=CCC(F)(F)CC4)cnc32)cc1` [Compound 650, 4-((5-(4,4-difluorocyclohex-1-en-1-yl)-1H-pyrrolo[2,3-b]pyridin-1-yl)methyl)-N-hydroxybenzamide], the IC50 was determined as 14 nM in experiment [1] and 2300 nM in experiment [2].

Regarding `O=C(NO)c1ccc(Cn2ccc3c(-c4ccccc4)ccnc32)cc1` [Compound 656, N-hydroxy-4-((4-phenyl-1H-pyrrolo[2,3-b]pyridin-1-yl)methyl)benzamide], the half-inhibitory concentration (IC50) in experiment [1] was 16 nM; in experiment [2], 1350 nM.

In the case of `O=C(NO)c1ccc(Cn2ccc3c(-c4ccncc4)ccnc32)cc1` [Compound 657, N-hydroxy-4-((4-(pyridin-4-yl)-1H-pyrrolo[2,3-b]pyridin-1-yl)methyl)benzamide], the figures for the IC50 in experiment [1] and in experiment [2] were 9 nM and 470 nM, respectively.

For the compound `O=C(NO)c1ccc(Cn2ccc3c(-c4ccc(F)cc4F)ccnc32)cc1` [Compound 658, 4-((4-(2,4-difluorophenyl)-1H-pyrrolo[2,3-b]pyridin-1-yl)methyl)-N-hydroxybenzamide], the concentration for half-maximal inhibition (IC50) in experiment [1] is 21 nM; in experiment [2] it was 1950 nM.

On to `O=C(NO)c1ccc(Cn2ccc3c(-c4cncnc4)ccnc32)cc1` [Compound 659, N-hydroxy-4-((4-(pyrimidin-5-yl)-1H-pyrrolo[2,3-b]pyridin-1-yl)methyl)benzamide], for which the values for the IC50 in experiment [1] and in experiment [2] were 4 nM and 900 nM, respectively.

`Cn1ncc2ccc(-c3cnc4c(ccn4Cc4ccc(C(=O)NO)cc4)c3)cc21` [Compound 685, N-hydroxy-4-((5-(1-methyl-1H-indazol-6-yl)-1H-pyrrolo[2,3-b]pyridin-1-yl)methyl)benzamide]: the IC50 worked out at 6 nM in experiment [1] and 790 nM in experiment [2].

In the case of `CC(C)(O)CN1CC=C(c2cnc3c(ccn3Cc3ccc(C(=O)NO)cc3)c2)CC1` [Compound 686, N-hydroxy-4-((5-(1-(2-hydroxy-2-methylpropyl)-1,2,3,6-tetrahydropyridin-4-yl)-1H-pyrrolo[2,3-b]pyridin-1-yl)methyl)benzamide], the IC50 is 39 nM in experiment [1] and 2740 nM in experiment [2].

For `COc1ccc(CN2CCC(c3cnc4c(ccn4Cc4ccc(C(=O)NO)cc4)c3)CC2)cn1` [Compound 1098, N-hydroxy-4-((5-(1-((6-methoxypyridin-3-yl)methyl)piperidin-4-yl)-1H-pyrrolo[2,3-b]pyridin-1-yl)methyl)benzamide], the half-maximal inhibitory concentration (IC50) in experiment [1] worked out at 5230 nM.

On to `COc1ccc(CN2CC3(CCN(c4cnc5c(ccn5Cc5ccc(C(=O)NO)cc5)c4)CC3)C2)cc1` [Compound 1125, N-hydroxy-4-((5-(2-(4-methoxybenzyl)-2,7-diazaspiro[3.5]nonan-7-yl)-1H-pyrrolo[2,3-b]pyridin-1-yl)methyl)benzamide], for which the half-inhibitory concentration (IC50) in experiment [1] was 1.8 nM.

In general, IC50 refers to the midpoint of a concentration-inhibition curve.

These data come from patent US9650379B2 (CHONG KUN DANG PHARMACEUTICAL CORP., priority 2013, dated 2017).
